For one assay, the target named is T1, EGFR^19del/T790M/C797S (Homo sapiens, UniProt P00533, T790M/C797S, form not given).
T1 construct: fused on or other part: Probably a GST tag on the cytoplasmic fragment, as in the vendor's product
Kind of assay: ELISA kinase activity inhibition, EGFR 19del/T790M/C797S. The format is biochemical. To be noted: ATP 5 μM, read-out: The average IC50 value (nM) for inhibiting the activity of different tyrosine kinases, EGFR^19del/T790M/C797S. As to the method:
(§1) EGFR (WT) is a wild-type epidermal growth factor receptor.
(§2) Enzyme-Linked Immunosorbent Assay (ELISA) was used to detect the inhibitory effect of compounds on kinase activity.
(§3) The main experimental steps were as follows: Enzyme reaction substrate Poly (Glu, Tyr)4:1 was diluted with potassium free PBS (10 mM sodium phosphate buffer, 150 mM NaCl, pH 7.2-7.4) to 20 μg/mL, and reacted at 37° C. for 12 hours to 16 hours to coat the enzyme-linked immunosorbent assay plate. ATP solution (final concentration 5 μM) diluted with reaction buffer (50 mM HEPES pH 7.4, 50 mM MgCl2, 0.5 mM MnCl2, 0.2 mM Na3VO4, 1 mM DTT) was added to each well, followed by the test compound or solvent control, then the kinase reaction was initiated and the plate was shaken at 37° C. for 1 hour. The plate was washed three times with T-PBS, then added antibody PY99. The plate was shaken at 37° C. for 0.5 hours. After washing the plate with T-PBS, added horseradish peroxidase-labeled IgG and shaken at 37° C. for 0.5 hours. After washing the plate again, added 2 mg/mL of OPD colorimetric solution and incubated at 25° C. in the dark for 1 minutes to 10 minutes. […] The IC50 values were obtained from the inhibition curve analysis.

Assay [1] concerns the target BaF3-EGFR (L858R/T790M/C797S) (Homo sapiens, UniProt P00533, T790M/C797S/L858R, cells depend on it). Kind of assay: CCK-8 cell proliferation, BaF3-EGFR(L858R/T790M/C797S). In kind it is cell-based. To be noted: CCK-8, 72 hours; read-out: Average value of IC50 of inhibition against EGFR-mutant cells growth, BaF3-EGFR (L858R/T790M/C797S). The method, then: (§4) Ba/F3 cells were obtained from Deutsche Sammlung von Mikroorganismen und Zellkulturen GmbH (DSMZ). […] All cells used in the study were verified by short tandem repeat (STR) analysis conducted by Genesky.
(§5) Tumor cell viability was assessed using a CCK-8 cell counting kit (A311-01/02, Vazyme, Nanjing, China). Cells were seeded at a density of 3000 cells per well into 96-well plates and cultured overnight. Subsequently, the cells were treated with compounds of different concentrations and incubated for 72 hours. After 72 hours, 10 μL of CCK-8 solution was added to each well. The plates were then returned to the incubator and incubated at 37° C. for 2 hours. The absorbance was measured at 450 nm using a microplate reader. A calibration curve was constructed using data obtained from wells containing known numbers of viable cells.

The next assay concerns the target EGFR^L858R/T790M/C797S (Homo sapiens, UniProt P00533, C797S/L858R/T790M). The assay can be described thus: ELISA kinase activity inhibition, EGFR L858R/T790M/C797S. The format is biochemical. To be noted: ATP 5 μM, read-out: The average IC50 value (nM) for inhibiting the activity of different tyrosine kinases, EGFR^L858R/T790M/C797S. The method, then:
as §2, §3

For assay [2], the target named is BaF3-EGFR (19del/T790M/C797S) (Homo sapiens, UniProt P00533, T790M/C797S, cells depend on it, form not given). The assay can be described thus: CCK-8 cell proliferation, BaF3-EGFR(19del/T790M/C797S). The format is cell-based. To be noted: CCK-8, 72 hours; read-out: Average value of IC50 of inhibition against EGFR-mutant cells growth, BaF3-EGFR (19del/T790M/C797S). The method, then: as §4, §5

The target of the next assay is T2, EGFR^WT (Homo sapiens, UniProt P00533).
T2 construct: purchased Eurofins
The assay can be described thus: ELISA kinase activity inhibition, wild-type EGFR. In kind it is biochemical. The following applies: ATP 5 μM, read-out: The average IC50 value (nM) for inhibiting the activity of different tyrosine kinases, EGFR^WT. The method, then: as §1, §2, §3
(ELISA stands for enzyme-linked immunosorbent assay.)

For another assay, the system named is BaF3 parent cell. The assay can be described thus: CCK-8 cell proliferation, BaF3 parent cell. The following applies: Mus musculus, BaF3; CCK-8, 72 hours; read-out: Average value of IC50 of inhibition against cells growth, BaF3 parent cell. In kind it is cell-based.
Excerpt: (§6) Ba/F3 cells were obtained from Deutsche Sammlung von Mikroorganismen und Zellkulturen GmbH (DSMZ). Ba/F3 cells stably expressing EGFR19del/T790M/C797S or EGFR L858R/T790M/C797S were generated by infecting parental cells with corresponding retroviruses. PC-9-OR was a tumor cell model obtained by simultaneously knocking in T790M and C797S mutations into 19del-activating mutation-dependent PC-9 tumor cells using CRISPR technology. This model, which proliferated dependent on EGFR19del/T790M/C797S resistance mutation, was used to evaluate the inhibitory activity of compounds against EGFR19del/T790M/C797S resistance mutants (Cancer Science. 2022; 113:709-720). All cells used in the study were verified by short tandem repeat (STR) analysis conducted by Genesky.
as §5

For assay [3], the system named is PC-9-OR (19del/T790M/C797S). The assay can be described thus: CCK-8 cell proliferation, PC-9-OR. In kind it is cell-based. To be noted: PC9-OR; CCK-8, 72 hours; read-out: Average value of IC50 of inhibition against EGFR-mutant cells growth, PC-9-OR (19del/T790M/C797S).
Excerpt: as §6, §5

Molecules are shown by their SMILES.

T2 sequence (P00533 25-1210): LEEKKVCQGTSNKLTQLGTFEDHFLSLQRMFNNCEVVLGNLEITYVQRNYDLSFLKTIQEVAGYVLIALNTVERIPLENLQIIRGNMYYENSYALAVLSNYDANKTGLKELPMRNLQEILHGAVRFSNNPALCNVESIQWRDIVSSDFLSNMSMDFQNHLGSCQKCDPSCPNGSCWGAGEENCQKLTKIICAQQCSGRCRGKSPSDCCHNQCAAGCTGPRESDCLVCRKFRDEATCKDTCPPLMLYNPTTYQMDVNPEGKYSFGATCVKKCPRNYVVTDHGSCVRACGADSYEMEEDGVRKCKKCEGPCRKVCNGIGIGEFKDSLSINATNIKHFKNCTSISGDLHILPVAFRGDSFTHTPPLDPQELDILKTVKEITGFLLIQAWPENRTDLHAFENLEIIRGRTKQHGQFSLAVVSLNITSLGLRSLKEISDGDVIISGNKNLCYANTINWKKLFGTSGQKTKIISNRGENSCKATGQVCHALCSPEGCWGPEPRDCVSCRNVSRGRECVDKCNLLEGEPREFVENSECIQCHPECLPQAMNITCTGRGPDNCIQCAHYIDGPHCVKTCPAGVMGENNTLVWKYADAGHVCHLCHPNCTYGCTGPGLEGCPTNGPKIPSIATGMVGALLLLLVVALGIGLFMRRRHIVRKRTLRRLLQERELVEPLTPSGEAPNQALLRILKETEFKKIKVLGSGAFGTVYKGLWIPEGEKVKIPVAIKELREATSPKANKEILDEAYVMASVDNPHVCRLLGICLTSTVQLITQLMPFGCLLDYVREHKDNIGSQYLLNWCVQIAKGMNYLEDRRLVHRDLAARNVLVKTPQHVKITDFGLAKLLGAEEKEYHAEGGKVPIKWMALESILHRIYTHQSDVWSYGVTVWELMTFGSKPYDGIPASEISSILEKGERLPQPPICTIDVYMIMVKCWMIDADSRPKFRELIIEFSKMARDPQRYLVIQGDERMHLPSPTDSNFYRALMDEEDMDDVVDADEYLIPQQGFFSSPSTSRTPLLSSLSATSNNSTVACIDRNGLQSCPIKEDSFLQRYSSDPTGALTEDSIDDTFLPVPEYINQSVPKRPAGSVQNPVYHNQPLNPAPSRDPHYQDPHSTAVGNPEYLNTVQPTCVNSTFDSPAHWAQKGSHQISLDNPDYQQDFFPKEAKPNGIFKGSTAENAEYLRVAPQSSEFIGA
BaF3-EGFR (L858R/T790M/C797S), sequence (P00533 whole entry T790M/C797S/L858R): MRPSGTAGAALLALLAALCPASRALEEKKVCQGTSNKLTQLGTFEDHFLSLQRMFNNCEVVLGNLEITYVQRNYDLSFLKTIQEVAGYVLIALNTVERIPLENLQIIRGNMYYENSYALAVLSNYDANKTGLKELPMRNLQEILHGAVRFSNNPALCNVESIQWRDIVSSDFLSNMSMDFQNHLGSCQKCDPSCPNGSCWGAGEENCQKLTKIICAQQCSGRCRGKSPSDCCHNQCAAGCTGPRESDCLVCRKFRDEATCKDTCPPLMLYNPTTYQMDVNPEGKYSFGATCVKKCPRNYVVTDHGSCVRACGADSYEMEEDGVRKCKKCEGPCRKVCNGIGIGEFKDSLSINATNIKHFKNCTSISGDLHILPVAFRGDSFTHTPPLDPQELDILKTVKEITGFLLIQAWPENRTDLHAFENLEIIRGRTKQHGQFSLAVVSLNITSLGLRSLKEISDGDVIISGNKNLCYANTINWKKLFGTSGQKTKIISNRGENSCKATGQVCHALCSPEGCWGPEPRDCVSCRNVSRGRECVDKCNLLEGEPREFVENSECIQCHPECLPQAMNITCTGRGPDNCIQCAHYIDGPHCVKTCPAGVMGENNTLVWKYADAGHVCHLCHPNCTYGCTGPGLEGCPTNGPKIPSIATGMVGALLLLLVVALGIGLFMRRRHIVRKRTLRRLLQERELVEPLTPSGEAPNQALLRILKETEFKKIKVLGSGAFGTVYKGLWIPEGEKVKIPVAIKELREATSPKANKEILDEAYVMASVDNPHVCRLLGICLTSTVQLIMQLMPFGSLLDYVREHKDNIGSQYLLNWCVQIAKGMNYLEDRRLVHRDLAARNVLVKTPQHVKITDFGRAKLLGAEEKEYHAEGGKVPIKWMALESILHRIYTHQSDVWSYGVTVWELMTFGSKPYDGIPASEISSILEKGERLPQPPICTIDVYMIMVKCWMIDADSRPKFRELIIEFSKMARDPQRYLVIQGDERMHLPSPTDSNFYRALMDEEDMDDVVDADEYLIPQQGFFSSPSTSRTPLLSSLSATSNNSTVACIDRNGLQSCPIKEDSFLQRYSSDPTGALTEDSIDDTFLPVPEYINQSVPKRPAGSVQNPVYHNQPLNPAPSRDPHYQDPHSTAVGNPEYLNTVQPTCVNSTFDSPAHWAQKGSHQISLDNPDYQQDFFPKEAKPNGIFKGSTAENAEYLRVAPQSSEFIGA
EGFR^L858R/T790M/C797S, sequence (P00533 25-1210 T790M/C797S/L858R): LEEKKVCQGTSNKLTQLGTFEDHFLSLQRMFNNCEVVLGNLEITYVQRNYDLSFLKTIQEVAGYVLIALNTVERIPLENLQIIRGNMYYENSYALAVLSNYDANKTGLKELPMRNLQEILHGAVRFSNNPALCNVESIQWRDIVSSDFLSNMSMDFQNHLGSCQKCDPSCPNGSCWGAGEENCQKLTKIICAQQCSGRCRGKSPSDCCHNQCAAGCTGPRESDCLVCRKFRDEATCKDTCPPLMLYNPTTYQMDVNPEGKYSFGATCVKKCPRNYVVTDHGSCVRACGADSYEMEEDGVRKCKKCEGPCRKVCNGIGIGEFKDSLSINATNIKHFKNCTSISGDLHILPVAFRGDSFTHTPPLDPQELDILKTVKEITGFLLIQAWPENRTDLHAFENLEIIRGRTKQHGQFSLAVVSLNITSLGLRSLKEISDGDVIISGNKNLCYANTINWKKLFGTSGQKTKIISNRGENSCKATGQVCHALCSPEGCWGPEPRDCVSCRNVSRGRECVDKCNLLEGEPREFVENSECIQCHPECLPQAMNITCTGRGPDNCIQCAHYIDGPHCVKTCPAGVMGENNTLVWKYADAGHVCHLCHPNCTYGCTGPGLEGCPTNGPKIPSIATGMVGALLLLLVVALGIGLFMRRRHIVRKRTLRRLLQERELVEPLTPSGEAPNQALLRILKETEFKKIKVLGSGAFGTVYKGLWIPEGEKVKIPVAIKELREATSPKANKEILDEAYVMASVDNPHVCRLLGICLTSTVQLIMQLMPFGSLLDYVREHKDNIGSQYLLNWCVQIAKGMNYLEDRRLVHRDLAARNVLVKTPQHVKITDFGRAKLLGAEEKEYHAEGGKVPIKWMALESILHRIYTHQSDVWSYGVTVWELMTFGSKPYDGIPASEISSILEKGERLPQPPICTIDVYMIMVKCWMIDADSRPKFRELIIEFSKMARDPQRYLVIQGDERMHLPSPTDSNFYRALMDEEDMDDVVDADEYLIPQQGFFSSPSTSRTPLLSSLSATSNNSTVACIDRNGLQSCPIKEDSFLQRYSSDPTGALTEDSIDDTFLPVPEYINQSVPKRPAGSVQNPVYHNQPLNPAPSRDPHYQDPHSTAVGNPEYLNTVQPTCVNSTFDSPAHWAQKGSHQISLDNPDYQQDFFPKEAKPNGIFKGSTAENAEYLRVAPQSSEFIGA
BaF3-EGFR (19del/T790M/C797S), sequence (P00533 with tags, fused parts or gaps DEL746-750/T790M/C797S, form open): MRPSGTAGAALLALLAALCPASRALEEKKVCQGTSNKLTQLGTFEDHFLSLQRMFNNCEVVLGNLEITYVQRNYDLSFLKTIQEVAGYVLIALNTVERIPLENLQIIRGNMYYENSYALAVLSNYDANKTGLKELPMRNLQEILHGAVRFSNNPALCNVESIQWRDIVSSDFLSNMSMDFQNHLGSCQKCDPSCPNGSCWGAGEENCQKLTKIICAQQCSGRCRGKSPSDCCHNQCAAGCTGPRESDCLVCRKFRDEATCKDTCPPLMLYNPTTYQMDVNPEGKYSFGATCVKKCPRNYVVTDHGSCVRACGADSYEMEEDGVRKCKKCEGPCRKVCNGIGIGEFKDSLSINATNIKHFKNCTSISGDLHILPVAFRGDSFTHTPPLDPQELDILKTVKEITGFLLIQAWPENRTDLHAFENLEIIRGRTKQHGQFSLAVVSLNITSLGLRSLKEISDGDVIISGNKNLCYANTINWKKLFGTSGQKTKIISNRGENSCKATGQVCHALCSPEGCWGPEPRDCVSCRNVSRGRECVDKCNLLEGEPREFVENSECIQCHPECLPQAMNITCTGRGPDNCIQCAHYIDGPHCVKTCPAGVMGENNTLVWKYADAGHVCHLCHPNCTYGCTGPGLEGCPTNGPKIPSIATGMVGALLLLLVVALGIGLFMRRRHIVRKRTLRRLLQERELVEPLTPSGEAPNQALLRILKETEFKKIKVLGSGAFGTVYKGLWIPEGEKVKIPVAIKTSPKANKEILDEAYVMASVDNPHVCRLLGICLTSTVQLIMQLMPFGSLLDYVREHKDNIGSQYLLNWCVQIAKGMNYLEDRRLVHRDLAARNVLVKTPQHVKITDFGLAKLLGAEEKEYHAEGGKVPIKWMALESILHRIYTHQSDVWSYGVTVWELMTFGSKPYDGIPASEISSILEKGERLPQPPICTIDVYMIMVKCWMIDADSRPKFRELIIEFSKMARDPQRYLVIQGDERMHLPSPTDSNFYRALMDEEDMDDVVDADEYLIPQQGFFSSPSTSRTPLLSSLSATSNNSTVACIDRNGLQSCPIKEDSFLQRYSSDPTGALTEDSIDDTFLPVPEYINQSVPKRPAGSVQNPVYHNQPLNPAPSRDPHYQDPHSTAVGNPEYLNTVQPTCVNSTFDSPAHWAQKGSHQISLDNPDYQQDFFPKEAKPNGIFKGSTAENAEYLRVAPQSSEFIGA

For `CCS(=O)(=O)n1cc2c3ccc(cc31)OCCCn1cc(cn1)-c1cc(ccc1N1CCOCC1)Nc1ncc(Cl)c-2n1` [HC871, (Z)-2^5-Chloro-1^1-(ethylsulfonyl)-4^4-morpholino-1^1H,5^1H-9-oxa-3-aza-1(3,6)-indola-2(4,2)-pyrimidina-5(4,1)-pyrazola-4(1,3)-benzenacyclononaphane], the IC50 was 6.3 nM at EGFR^19del/T790M/C797S; 4.9 nM at EGFR^L858R/T790M/C797S; over 1000 nM at EGFR^WT; 217 nM in the assay with BaF3 parent cell; 85 nM in assay [3]. Besides, the results for the GI50 in assay [1] and in assay [2] were 74 nM and 70 nM, respectively.

In the case of `CCS(=O)(=O)n1cc2c3ccc(cc31)OCCCn1cc(cn1)-c1cc(ccc1N1CCOCC1)Nc1nccc-2n1` [HC950, 1^1-ethylsulfonyl-4^6-methyl-4^4-(4-methylpiperazin-1-yl)-1^1H,5^1H-9-oxa-3-aza-1(3,6)-indole-2(4,2)-pyrimidine-5(4,1)-pyrazole-4(1,3)-benzenacyclononaphane], the IC50 at EGFR^19del/T790M/C797S was determined as 4.3 nM; on EGFR^L858R/T790M/C797S, 0.4 nM; at EGFR^WT, 111 nM; in the assay with BaF3 parent cell it was 950 nM; in assay [3], 149 nM. Further, the GI50 is 336 nM in assay [1] and 170 nM in assay [2].

With `CCS(=O)(=O)n1cc2c3ccc(cc31)OCCCn1cc(cn1)-c1cc(c(C)cc1N1CCOCC1)Nc1nccc-2n1` [HC950M, (Z)-1^1-Ethylsulfonyl-4^6-methyl-4^4-morpholino-1^1H,5^1H-9-oxa-3-aza-1 (3,6)-indole-2(4,2)-pyrimidine-5(4,1) pyrazol-4(1,3)-benzenacyclononaphane], the IC50 at EGFR^19del/T790M/C797S was determined as 7.3 nM; on EGFR^L858R/T790M/C797S it was 1.9 nM; at EGFR^WT it was 37.6 nM; with BaF3 parent cell it was 445 nM; in assay [3], 149 nM. Besides, the GI50 in assay [1] amounted to 108 nM; in assay [2], 86 nM.

Turning to `CCS(=O)(=O)n1cc2c3ccc(cc31)OCCCCn1cc(cn1)-c1cc(ccc1N1CCOCC1)Nc1ncc(Cl)c-2n1` [HC8714, 2^5-Chloro-1^1-Ethylsulfonyl-4^4-morpholino-1^1H,5^1H-10-oxa-3-aza-1(3,6)-Indole-2(4,2)-Pyrimidin-5(4,1)-Pyrazol-4(1,3)-Phenyldecane], the IC50 at EGFR^19del/T790M/C797S came to 2.7 nM; at EGFR^L858R/T790M/C797S, 9.3 nM; at EGFR^WT, 802 nM; in the assay with BaF3 parent cell, 274 nM; in assay [3] it was 155 nM. Further, the values for the GI50 in assay [1] and in assay [2] were 75 nM and 91 nM, respectively.

`Cc1cc(N2CCOCC2)c2cc1Nc1ncc(Cl)c(n1)-c1c[nH]c3cc(ccc13)OCCCn1cc-2cn1` [HC8990, 2^5-Chloro-4^6-Methyl-4^4-morpholino-1^1H,5^1H-9-oxa-3-aza-1(3,6)-Indole-2(4,2)-Pyrimidin-5(4,1)Pyrazol-4(1,3)-benzenacyclononaphane]: the IC50 at EGFR^19del/T790M/C797S came to 3.4 nM; on EGFR^L858R/T790M/C797S, 1 nM; at EGFR^WT, 342 nM; with BaF3 parent cell, 3290 nM; in assay [3], 531 nM. For the same compound, the results for the GI50 in assay [1] and in assay [2] were 325 nM and 429 nM, respectively.

Take `CCS(=O)(=O)n1cc2c3ccc(cc31)OCCCn1cc(cn1)-c1cc(c(C)cc1N1CCN(C)CC1)Nc1ncc(Cl)c-2n1` [HC9452, 2^5-chloro-1^1-ethylsulfonyl-4^6-methyl-4^4-(4-methylpiperazin-1-yl)-1^1H,5^1H-9-oxa-3-aza-1(3,6)-indole-2(4,2)-pyrimidine-5(4,1)-pyrazole-4(1,3)-benzenacyclononaphane]: the IC50 on EGFR^19del/T790M/C797S turned out to be 4.3 nM; on EGFR^L858R/T790M/C797S, 4.3 nM; at EGFR^WT it was 44.7 nM; in the assay with BaF3 parent cell it was 1790 nM; in assay [3], 81 nM. Besides, the GI50 in assay [1] was 591 nM; in assay [2], 472 nM.
